The values that follow come from patent US6013621A, “Method of treating psychosis and/or hyperactivity” (The Rockfeller University, priority 1997, dated 2000).

“And” between values parts separate entries of the source, which are not always exact repeats. Equal entries are not always repeated. Where two headings read alike, the source gives them in different places.

The test system of one series is DARPP-32 phosphorylation. The series can be described thus: DARPP-32 phosphorylation in rat neostriatal slices (FIG. 9). The class given is cell-based. Conditions: forskolin 10 μM plus FK506 at various concentrations. As for the experimental part:
FIG. 9. FK506 increases the level of DARPP-32 phosphorylation in neostriatal slices. Rat neostriatal slices were incubated in the absence (control) or presence of forskolin (10 μM) alone; or forskolin and FK506 using the various concentrations shown.

A short description of series [1]: prepulse inhibition (PPI) of the startle reflex in mice. Type of series: in vivo. The text has this:
Chambers that are used to assess startle are housed in a sound-attenuated room with a 60 dB(A) ambient noise level. Such chambers consist of a Plexiglass cylinder 8.2 cm in diameter resting on a 12.5×25.5 cm Plexiglass frame within a ventilated enclosure. Acoustic noise bursts are presented via a speaker mounted 24 cm above the animal. A piezoelectric accelerometer mounted below the Plexiglass frame detects and transduces motion within the cylinder. The delivery of acoustic stimuli is controlled by a microcomputer. Startle amplitude is defined as the average of 100 readings. Background noise and all acoustic stimuli are delivered through a speaker (frequency response between 0.5 and 16 Khz) in a chamber. The test session consists of giving: (i) a startle stimulus alone (a 118 dB [A] 40 ms broad band burst); or (ii) no stimulation; or (iii) a startle stimulus preceded 100 ms earlier by a prepulse (a 70 dB [A] 20 ms broad band burst). The amount of PPI is expressed as the percentage decrease in the startle response caused by the presentation of the prepulse. The amount of PPI is calculated using the following equation: [(startle amplitude caused by pulse alone minus startle amplitude caused by pulse preceded by prepulse)/(startle amplitude caused by pulse alone)]×100.

The conditions of series [2]: Begley et al., 1990; cited from earlier work.
Series [3] has as its system thr^34 -phosphorylated DARPP-32. The series can be described thus: phospho-DARPP-32 immunoblot in mouse neostriatal slices. The class given is cell-based. Conditions: for increase in the level of phosphorylated DARPP-32 over the already high basal levels: Ca^2+ -free/EGTA medium; for increase in the level of phosphorylated DARPP-32: vs untreated slices. As for the experimental part:
(§1) Preparation and incubation of striatal slices. Male C57BL/6 mice (5-8 weeks old) were sacrificed by decapitation. The brains of the decapitated mice were rapidly removed and placed in ice-cold, oxygenated Krebs-HCO3 -buffer (124 mM NaCl, 4 mM KCl, 26 mM NaHCO3, 1.5 mM CaCl2, 1.25 mM KH2 PO4, 1.5 mM MgSO4 and 10 mM D-glucose, pH 7.4). Coronal slices (350 μm) were prepared using a vibratome. Striatum and nucleus accumbens were dissected from the slices in ice-cold Krebs-HCO3 - buffer. Each slice was placed in a polypropylene incubation tube with 2 ml of fresh Krebs-HCO3 - buffer containing adenosine deaminase (10 μg/ml). The slices were preincubated at 30° C. under constant oxygenation with 95 % O2 /5 % CO2 for 60 minutes. The buffer was replaced with fresh Krebs-HCO3 -buffer after 30 minutes of preincubation. In some experiments, slices were incubated in Ca^2+ -free/EGTA medium (124 mM NaCl, 4 mM KCl, 26 mM NaHCO3, 1.25 mM KH2 PO4, 3.0 mM MgSO4, 10 mM D-glucose and I mM EGTA, pH 7.4) for 20 minutes after 60 minutes of preincubation in Krebs-HCO3 - buffer. Slices were treated with drugs as specified in each experiment.
(§2) Immunoblotting. Frozen tissue samples were sonicated in boiling 1% SDS and boiled for an additional 10 minutes. Small aliquots of the homogenate were retained for protein determination by the BCA protein assay method (Pierce) using bovine serum albumin as a standard. […] The membranes were immunoblotted using a monoclonal antibody (mAb-23; 1:750 dilution) [Snyder et al., (1992)], which is a phosphorylation state-specific antibody raised against a DARPP-32 peptide containing phospho-thr^34, the site phosphorylated by cAMP-dependent protein kinase. A monoclonal antibody (C24-5a; 1:7500 dilution) generated against DARPP-32 (Hemmings and Greengard, 1986), which is not phosphorylation state-specific, was used to estimate the total amount of DARPP-32 in samples.
(§3) Data were analyzed by Student's t -test with significance defined as p<0.05.

The conditions of series [4]: treatment with a D1 antagonist, Karlsson et al., 1995; cited from earlier work.
In series [5] the test system is thr^34 -phosphorylated DARPP-32. The series is described as follows: phospho-DARPP-32 immunoblot in nucleus accumbens slices. Type of series: cell-based, mouse. On the procedure: as §1, §2, §3
Background: A western blot detects proteins with antibodies after separation by electrophoresis.

For the molecule `C=CC[C@@H]1/C=C(\C)C[C@H](C)C[C@H](OC)[C@H]2O[C@@](O)(C(=O)C(=O)N3CCCC[C@H]3C(=O)O[C@H](/C(C)=C/[C@@H]3CC[C@@H](O)[C@H](OC)C3)[C@H](C)[C@@H](O)CC1=O)[C@H](C)C[C@@H]2OC` [FK506], the “effect on the level of DARPP-32 phosphorylation” value in the series with DARPP-32 phosphorylation is given as “increases DARPP-32 phosphorylation in a dose-dependent manner”. Further, the “effect on the reduction of PPI mediated by quinpirole” value in series [1] (D2 agonist and FK506 concurrently, FK506 intravenously 1 to 1000 nM) was “blocks the reduction of PPI mediated by quinpirole”. Further, in series [1] (FK506 alone), the “effect on the degree of PPI, FK506 alone” value is recorded as “can increase the degree of PPI”. Besides, the “crossing of the blood-brain barrier” value in series [2] is “effectively crosses the blood-brain barrier”.

As for `C[C@]12N[C@H](Cc3ccccc31)c1ccccc12` [MK801], in series [3], the “effect on the D2 receptor (quinpirole) decrease of DARPP-32 phosphorylation” value is on record as “not blocked”; the “effect on the basal level of phosphorylated DARPP-32” value (from here on “effect on the basal level”) is “increased”; the “level of phospho-DARPP-32, MK801 (+)” value is listed as 0.247 ± 0.044. Moreover, the “effect on the NMDA antagonism of the SKF82526-induced increase of phosphorylated DARPP-32” value in series [3] (MK801 100 μM, NMDA 100 μM) was “abolished”.

On to `CN[C@H](CC(=O)O)C(=O)O` [NMDA], for which the “effect on the SKF82526-stimulated level of phosphorylated DARPP-32” value in series [3] is on record as “antagonized”. Besides, in series [3] (discussion of Table 2 data), the “decrease in SKF 82526-induced phosphorylation of DARPP-32” value is listed as 100%.

Take `CN1CCc2cc(Cl)c(O)cc2[C@@H](c2ccccc2)C1` [SCH23390]: the “effect on the SKF82526-induced DARPP-32 phosphorylation (D1 antagonist)” value in series [3] is on record as “abolished”.

For the molecule `CN1CCc2cc(Cl)c(O)cc2[C@H]2c3ccccc3CC[C@@H]21` [SCH39166], in series [4], the “effect on the symptoms of schizophrenia” value is “does not improve but actually worsens the symptoms of schizophrenia”.

As to `Oc1ccc(C2CNCCc3c2cc(O)c(O)c3Cl)cc1` (centres unmarked) [SKF82526], in series [3], the “level of phospho-DARPP-32, TTX (+)” value stood at 5.492 ± 0.780; the “level of phospho-DARPP-32, TTX (-)” value is 3.282 ± 0.575; the “increase in the level of phosphorylated DARPP-32 over the already high basal levels” value is listed as 1.55±0.12 fold. In addition, the EC50 in series [3] (Mus musculus, dose-dependent increase, read-out: half-maximal effect on DARPP-32 phosphorylation) is approximately 100 nM. For the same molecule, the “increase in the level of phosphorylated DARPP-32” value in series [3] (SKF82526 1 μM alone) is 5.37±0.99 fold and 9.36±2.06 fold. In addition, the “level of phospho-DARPP-32, Cyclosporin A (-), 5 min” value in series [3] (Table 1A, SKF82526 1 μM for 5 min, normalized to control) was 7.14 ± 0.97. Also, in series [3] (Table 1A, SKF82526 1 μM for 30 min, normalized to control), the “level of phospho-DARPP-32, Cyclosporin A (-), 30 min” value was 3.07 ± 0.66. The “level of phospho-DARPP-32, Cyclosporin A (+), 5 min” value in series [3] (Table 1A, cyclosporin A 5 μM preincubation 60 min, SKF82526 1 μM for 5 min, normalized to control) was 31.6 ± 2.8. For the same molecule, the “level of phospho-DARPP-32, Cyclosporin A (+), 30 min” value in series [3] (Table 1A, cyclosporin A 5 μM preincubation 60 min, SKF82526 1 μM for 30 min, normalized to control) stood at 28.0 ± 3.1. The “level of phospho-DARPP-32, Cyclosporin A (+)” value in series [3] (Table 1C, cyclosporin A 5 μM 60 min, quinpirole 1 μM 5 min preincubation, SKF82526 1 μM 5 min, normalized to control) is given as 21.1 ± 2.3. Besides, in series [3] (Table 1C, quinpirole 1 μM 5 min preincubation, SKF82526 1 μM 5 min, normalized to control), the “level of phospho-DARPP-32, Cyclosporin A (-)” value came out at 10.61 ± 2.28. Besides, the “level of phospho-DARPP-32, MK801 (+)” value in series [3] (Table 2, MK801 100 μM from 0 min, NMDA 100 μM or quinpirole 1 μM at 10 min, SKF82526 1 μM at 15 min of 20 min, normalized to SKF82526 alone) is on record as 1.115 ± 0.078. Also, the “level of phospho-DARPP-32, MK801 (-)” value in series [3] (Table 2, NMDA 100 μM or quinpirole 1 μM at 10 min, SKF82526 1 μM at 15 min of 20 min, normalized to SKF82526 alone) came to 1.000. The “increase in the level of phosphorylated DARPP-32” value in series [5] (SKF82526 1 μM) was “about 7 fold”.

Turning to `NC1=N[C@H](O)[C@H]2[C@H]3O[C@]4(O)O[C@@H]([C@@H](O)[C@@]2(N1)[C@@H]4O)[C@]3(O)CO` [TTX, tetrodotoxin], in series [3], the “effect on the SKF82526-stimulated level of phosphorylated DARPP-32” value is reported as “increased”; the “effect on the basal level” value is recorded as “increased”; the “effect on the effect of quinpirole on DARPP-32 phosphorylation” value is recorded as “failed to reduce”; the “level of phospho-DARPP-32, TTX (+)” value worked out at 1.000.

`NCCc1ccc(O)c(O)c1` [dopamine]: in series [3] (dopamine 100 μM plus nomifensine 10 μM), the “increase in the level of phosphorylated DARPP-32” value was 6.64±1.36 fold.

As for `C=C[C@@]1(C)CC(=O)[C@]2(O)[C@@]3(C)[C@@H](O)CCC(C)(C)[C@@H]3[C@H](O)[C@H](OC(C)=O)[C@@]2(C)O1` [forskolin], the “increase in the level of phosphorylated DARPP-32 over the already high basal levels” value in series [3] was 2.04±0.22 fold. For the same molecule, in series [3] (forskolin 10 μM, 8-bromo-cAMP 1 mM), the “increase in the level of phosphorylated DARPP-32 after 5 minutes” value was determined as 20 fold.

Regarding `CCCN1CCC[C@@H]2Cc3n[nH]cc3C[C@H]21` [quinpirole], the “effect on the basal level” value in series [3] is “decreased”.

Consider `CCN1CCC[C@H]1CNC(=O)c1c(O)c(Cl)cc(Cl)c1OC` [raclopride], for which, in series [3], the “effect on the basal level” value is listed as “slightly increased”. In addition, the “effect on the ability of quinpirole to decrease the SKF82526-stimulated level of phosphorylated DARPP-32” value in series [3] (raclopride 1 μM) was “dramatically reduced”. The “effect on the ability of quinpirole to decrease the basal level of phosphorylated DARPP-32” value in series [3] (raclopride 1 μM, quinpirole (100 μM)) is reported as “blocked”. In addition, in series [5] (raclopride 1 μM), the “effect on the quinpirole-induced decrease in SKF82526-stimulated DARPP-32 phosphorylation” value is given as “abolished” and the “effect on the quinpirole-induced decrease in basal DARPP-32 phosphorylation” value is recorded as “abolished”. In addition, in series [5] (raclopride alone 1 μM), the “effect on the basal level” value is reported as “small increase”.

With `C/C=C(/C)C(=O)O[C@H]1C(C)=C2[C@H]([C@@H]1OC(=O)CCCCCCC)[C@@](C)(OC(C)=O)C[C@H](OC(=O)CCC)[C@@]1(O)[C@H]2OC(=O)[C@@]1(C)O` [thapsigargin], in series [3] (thapsigargin 5 μM added 5 min before SKF82526 1 μM for 5 minutes), the “reduction of the level of phosphorylated DARPP-32 seen with SKF82526” value is listed as 46.9±7.7%.
